Data as given in patent publication US20210347813A1, “COMPOUNDS WITH HIV MATURATION INHIBITORY ACTIVITY” (priority 2018, published 2021).

Experiments:
HIV = conditions: cited from earlier work
[1] = Rat PK after single intramuscular (IM) administration of prodrugs, parent MI #1 measured in plasma; format: in vivo; design: unit not given here; conditions: male SD rats, IM 20 mg/kg
Excerpt: FIG. 2 is a concentration vs time curve of the plasma concentrations of parent MI #1 following a single Intramuscular (IM) administration of the Prodrugs and parent MI #1 to male SD rats. […] Additional pharmacokinetic data collected from the same experiments summarized in FIG. 2 is contained in the table below.
Animal strain: Sprague Dawley (SD) rat, purchased from Shanghai SLAC Laboratory Animal Co., Ltd. Sex: male; Age: 6-8 weeks; BW: 200-250 g, N=30 rats (N=3 per prodrug); Food status: Free access to food and water for the entire in-life phase.
Dose: 20 mg/kg (2 mL/kg, 10 mg/mL), IM injection; Formulation: 1% Kolliphor P188+4.5% Mannitol+94.5% Milli-Q Water;
N=3 rats/time point for each compound via IM administration
Sampling at 0.5, 1, 3, 5 and 7 hr, 1, 2, 3, 4, 5, 6 and 7 days post dose then 2×/week for a total of 8 weeks, 12*8 time points, serial bleeding for plasma only.
* Weekly interim analysis of the plasma samples (12 time points) to get an early read on the PK of the construct Blood collection and processing: The animal was restrained manually and approximately 150 μL blood per time point was collected in tubes containing K2EDTA anticoagulant. The sample was centrifuged at 2200 g for 10 min at 2-8° C. for plasma. The plasma samples were stored immediately at −70° C.
LC-MS/MS method was developed to quantitate both prodrugs and parent in plasma. The samples were analyzed in duplicate. Two sets of standard curves and three levels of QCs were run in each plate. Both the standards and QCs were run in duplicate.
WinNonlin V 6.4 statistics software (Pharsight Corporation, California, USA) was used to generate pharmacokinetics parameters (Tmax, Cmax, T1/2, AUC, MRT etc).

[2] = Single dose mouse PK study, oral dose of prodrug or parent, parent MI #3 measured; format: in vivo; conditions: male CD1 mice, PO 5 mg/kg
Method: A single dose mouse PK study was conducted following an oral dose of the prodrug that was prepared as Example 1, being dosed and measuring parent maturation inhibitor (MI) #3, and compared to PK parameters with Parent MI #3 being dosed in male CD1 mice. In the current study, the formulation for parent MI #3 was 0.5% Methocel A4M:0.1% Tween 80:99.4% water. For the prodrug of Example 1, the formulation was 2% Dimethylacetamide:10% ethanol: 87.5% PEG 400:0.5% Tween 80.
Following oral administration of the prodrug, all prodrug concentrations at all timepoints were BLQ. As shown in the table below the exposure of the parent MI #3 obtained from dosing the prodrug was higher than that seen with dosing a crystalline suspension of the parent MI #3.

[3] = MI Parent #3 mouse PK, IV solution; format: in vivo; conditions: dose 1 (printed mg)
[4] = Mouse PK after subcutaneous (SQ) suspension doses, MI #3 measured in plasma; format: in vivo; conditions: male CD-1 mice, SQ 20 mg/kg suspension, MI Parent #3 measured in plasma
Method: FIG. 1 is a graph of concentration vs. time from plasma of MI #3 in ng/mL vs time in hours following subcutaneous (SQ) doses of MI3 # or the prodrugs from Examples 3, 4, and 5 as suspensions in 1% Kolliphor P 188/2% PEG 3350/3.5% Mannitol/93.5% water at 20 mg/kg to male CD-1 mice. […] Exposure of Parent MI #3 decreased 23-fold, 16-fold, and 3-fold after administration of Example 3, 4 and 5, respectively. The presence of the prodrugs was not observed in plasma. Although the exposure is lower than when dosed with parent itself, the half-life of Parent MI #3 is longer after administration of all three prodrugs showing the potential to be useful for less frequent dosing.
Subcutaneous (SQ) doses of each of the compounds from Examples 3, 4, and 5 as suspensions (Dose conc. 4 mg/mL, Dose volume 5 mL/kg) in 1% Kolliphor P 188/2% PEG 3350/3.5% Mannitol/93.5% water at 20 mg/kg to 3 male CD-1 mice (Cr1:CD1 (ICR)) Charles River Laboratories, 25-30gs at dose initiation, age as appropriate for weight. The concentration of Parent MI #3 and prodrugs were measured in the plasma of animals of all three groups at time points of 0.5, 1, 3, 5, 7, 24, 48, 72, 96, 120, 144, and 168 hours. The collection conditions were K2EDTA and the volume/timepoint was 30 μL. The presence of the prodrugs was not observed in plasma for any group.
LC-MS/MS methods were developed to quantitate both prodrugs and parent in plasma. The samples were analyzed in duplicate. Two sets of standard curves and three levels of QCs were run in each plate. Both the standards and QCs were run in duplicate. The table below is a summary of the protocols and guidance that was supplied to the scientists who carried out the experiments.

Compound: C=C(C)[C@@H]1CC[C@]2(C(=O)O)CC[C@]3(C)[C@H](CC[C@@H]4[C@@]5(C)CC[C@H](OC(=O)CC(C)(C)C(=O)O)C(C)(C)[C@@H]5CC[C@]43C)[C@@H]12 [Bevirimat]
- reduction of HIV viral load (mean) (HIV; patients with trough levels >=20 μg/mL and no key baseline Gag polymorphisms at Q369, V370 or T371): 1.3 log10/mL
- viral load reduction vs patients without Gag polymorphisms (HIV; users with Gag polymorphisms at Q369, V370 or T371): significantly lower load reductions

Compound: C=C(C)[C@@H]1CC[C@]2(NCCN3CCS(=O)(=O)CC3)CC[C@]3(C)[C@H](CC[C@@H]4[C@@]5(C)CC=C(C6=CC[C@@](CF)(C(=O)OCOC(=O)CCCCC)CC6)C(C)(C)[C@@H]5CC[C@]43C)[C@@H]12 [Example 18, (Hexanoyloxy)methyl (R)-4-((1R,3aS,5aR,5bR,7aR,11aS,11bR,13aR,13bR)-3a-((2-(1,1-dioxidothiomorpholino)ethyl)amino)-5a,5b,8,8,11a-pentamethyl-1-(prop-1-en-2-yl)-2,3,3a,4,5,5a,5b,6,7,7a,8,11,11a,11b,12,13,13a,13b-octadecahydro-1H-cyclopenta[a]chrysen-9-yl)-1-(fluoromethyl)cyclohex-3-ene-1-carboxylate]
- AUCINF (day) [1]: 2100

Compound: C=C(C)[C@@H]1CC[C@]2(NCCN3CCS(=O)(=O)CC3)CC[C@]3(C)[C@H](CC[C@@H]4[C@@]5(C)CC=C(C6=CC[C@@](CF)(C(=O)OCOC(=O)CCCCCCC)CC6)C(C)(C)[C@@H]5CC[C@]43C)[C@@H]12 [Example 19, (Octanoyloxy)methyl (R)-4-((1R,3aS,5aR,5bR,7aR,11aS,11bR,13aR,13bR)-3a-((2-(1,1-dioxidothiomorpholino)ethyl)amino)-5a,5b,8,8,11a-pentamethyl-1-(prop-1-en-2-yl)-2,3,3a,4,5,5a,5b,6,7,7a,8,11,11a,11b,12,13,13a,13b-octadecahydro-1H-cyclopenta[a]chrysen-9-yl)-1-(fluoromethyl)cyclohex-3-ene-1-carboxylate]
- AUCINF (day) [1]: 1393

Compound: C=C(C)[C@@H]1CC[C@]2(NCCN3CCS(=O)(=O)CC3)CC[C@]3(C)[C@H](CC[C@@H]4[C@@]5(C)CC=C(C6=CC[C@@](CF)(C(=O)OCOC(=O)C(C)C)CC6)C(C)(C)[C@@H]5CC[C@]43C)[C@@H]12 [Example 21, (Isobutyryloxy)methyl (R)-4-((1R,3aS,5aR,5bR,7aR,11aS,11bR,13aR,13bR)-3a-((2-(1,1-dioxidothiomorpholino)ethyl)amino)-5a,5b,8,8,11a-pentamethyl-1-(prop-1-en-2-yl)-2,3,3a,4,5,5a,5b,6,7,7a,8,11,11a,11b,12,13,13a,13b-octadecahydro-1H-cyclopenta[a]chrysen-9-yl)-1-(fluoromethyl)cyclohex-3-ene-1-carboxylate]
- AUCINF (day) [1]: 1682

Compound: C=C(C)[C@@H]1CC[C@]2(NCC[C@]3(O)CC[C@@H](S(C)(=O)=O)CC3)CC[C@]3(C)[C@H](CC[C@@H]4[C@@]5(C)CC=C(C6=CC[C@@](COc7ncccc7C#N)(C(=O)O)CC6)C(C)(C)[C@@H]5CC[C@]43C)[C@@H]12 [Parent MI #3, (S)-1-(((3-cyanopyridin-2-yl)oxy)methyl)-4-((1R,3aS,5aR,5bR,7aR,11aS,11bR,13aR,13bR)-3a-((2-((1s,4R)-1-hydroxy-4-(methylsulfonyl)cyclohexyl)ethyl)amino)-5a,5b,8,8,11a-pentamethyl-1-(prop-1-en-2-yl)-2,3,3a,4,5,5a,5b,6,7,7a,8,11,11a,11b,12,13,13a,13b-octadecahydro-1H-cyclopenta[a]chrysen-9-yl)cyclohex-3-enecarboxylic acid]
- AUC0-24h norm [2]: 3.7 μg/mL *h/dose
- AUC0-last [2]: 18000 ng·h/mL
- Bioavailability [2]: 5.0 % F
- C24 [2]: 0.03 µg/mL
- Cmax [2]: 1300 ng/mL
- Tmax [2]: 4.7 h
- %AUCextra [3]: 24.8%
- AUClast [3]: 64197 ng·h/mL
- AUCtot [3]: 87808 ng·h/mL
- Clearance [3]: 0.20 mL/min/kg
- MRT [3]: 22.2 h
- Vss [3]: 0.25 L/kg
- t(1/2) [3]: 16.3 h
- %AUCextra [4]: 12.3%
- AUClast [4]: 449442 ng·h/mL
- AUCtot [4]: 515257 ng·h/mL
- Bioavailability [4]: 35 % F
- Cmax [4]: 6563 ng/mL
- t(1/2) [4]: 58.3 h
